Reference: ChEMBL document CHEMBL3822364, “Synthesis, characterization and antimicrobial activity of novel Schiff base tethered boronate esters of 1,2-O-isopropylidene-α-d-xylofuranose” (2016)
Converted amounts (≈) assume the structure as drawn.

Experiments:
Salmonella paratyphi [1] = assay: Antibacterial activity against Salmonella paratyphi measured after 24 hrs by NCCL protocol based broth dilution method; format: functional, Salmonella enterica subsp. enterica serovar Paratyphi A; conditions: Salmonella enterica
Streptococcus mutans [2] = assay: Antibacterial activity against Streptococcus mutans MTCC 497 measured after 24 hrs by NCCL protocol based broth dilution method; format: functional; conditions: MTCC 497, 24 h
Salmonella typhi [3] = assay: Antibacterial activity against Salmonella typhi measured after 24 hrs by NCCL protocol based broth dilution method; format: functional, Salmonella enterica subsp. enterica serovar Typhi; conditions: Salmonella enterica
Salmonella typhi [4] = assay: Antibacterial activity against Salmonella typhi assessed as zone of inhibition at 100 ug/well measured after 24 hrs by agar well diffusion method; format: functional, Salmonella enterica subsp. enterica serovar Typhi; conditions: Salmonella enterica, read-out: DIZ
Salmonella paratyphi [5] = assay: Antibacterial activity against Salmonella paratyphi assessed as zone of inhibition at 100 ug/well measured after 24 hrs by agar well diffusion method; format: functional, Salmonella enterica subsp. enterica serovar Paratyphi A; conditions: Salmonella enterica, read-out: DIZ
Micrococcus luteus [6] = assay: Antibacterial activity against Micrococcus luteus MTCC 106 measured after 24 hrs by NCCL protocol based broth dilution method; format: functional; conditions: MTCC 106, 24 h
Staphylococcus aureus [7] = assay: Antibacterial activity against Staphylococcus aureus MTCC 3160 measured after 24 hrs by NCCL protocol based broth dilution method; format: functional; conditions: MTCC 3160, 24 h
Micrococcus luteus [8] = assay: Antibacterial activity against Micrococcus luteus MTCC 106 assessed as zone of inhibition at 100 ug/well measured after 24 hrs by agar well diffusion method; format: functional; conditions: MTCC 106, 24 h, read-out: DIZ
Klebsiella pneumoniae [9] = assay: Antibacterial activity against Klebsiella pneumoniae MTCC 3384 assessed as zone of inhibition at 100 ug/well measured after 24 hrs by agar well diffusion method; format: functional; conditions: MTCC 3384, 24 h, read-out: DIZ
Candida albicans [10] = assay: Antifungal activity against Candida albicans MTCC 3017 measured after 48 hrs by NCCL protocol based broth dilution method; format: functional; conditions: MTCC 3017, 48 h
Aspergillus fumigatus [11] = assay: Antifungal activity against Aspergillus fumigatus MTCC 343 measured after 48 hrs by NCCL protocol based broth dilution method; format: functional; conditions: MTCC 343, 48 h
Klebsiella pneumoniae [12] = assay: Antibacterial activity against Klebsiella pneumoniae MTCC 3384 measured after 24 hrs by NCCL protocol based broth dilution method; format: functional; conditions: MTCC 3384, 24 h
Streptococcus mutans [13] = assay: Antibacterial activity against Streptococcus mutans MTCC 497 assessed as zone of inhibition at 100 ug/well measured after 24 hrs by agar well diffusion method; format: functional; conditions: MTCC 497, 24 h, read-out: DIZ
Staphylococcus aureus [14] = assay: Antibacterial activity against Staphylococcus aureus MTCC 3160 assessed as zone of inhibition at 100 ug/well measured after 24 hrs by agar well diffusion method; format: functional; conditions: MTCC 3160, 24 h, read-out: DIZ
Aspergillus fumigatus [15] = assay: Antifungal activity against Aspergillus fumigatus MTCC 343 assessed as zone of inhibition at 100 ug/well measured after 48 hrs by agar well diffusion method; format: functional; conditions: MTCC 343, 48 h, read-out: DIZ
Candida albicans [16] = assay: Antifungal activity against Candida albicans MTCC 3017 assessed as zone of inhibition at 100 ug/well measured after 48 hrs by agar well diffusion method; format: functional; conditions: MTCC 3017, 48 h, read-out: DIZ

Row | Compound | MIC (Salmonella paratyphi [1]) [µg/mL] | MIC (Streptococcus mutans [2]) [µg/mL] | MIC (Salmonella typhi [3]) [µg/mL] | zone of inhibition at 100 µg/disc (Salmonella typhi [4]) [mm] | zone of inhibition at 100 µg/disc (Salmonella paratyphi [5]) [mm] | MIC (Micrococcus luteus [6]) [µg/mL] | MIC (Staphylococcus aureus [7]) [µg/mL] | zone of inhibition at 100 µg/disc (Micrococcus luteus [8]) [mm] | zone of inhibition at 100 µg/disc (Klebsiella pneumoniae [9]) [mm] | MIC (Candida albicans [10]) [µg/mL] | MIC (Aspergillus fumigatus [11]) [µg/mL] | MIC (Klebsiella pneumoniae [12]) [µg/mL] | zone of inhibition at 100 µg/disc (Streptococcus mutans [13]) [mm] | zone of inhibition at 100 µg/disc (Staphylococcus aureus [14]) [mm] | zone of inhibition at 100 µg/disc (Aspergillus fumigatus [15]) [mm] | zone of inhibition at 100 µg/disc (Candida albicans [16]) [mm]
1 | CC1(C)O[C@H]2O[C@@H]3COB(c4ccc(/C=N/c5ccc(Br)cc5)cc4)O[C@@H]3[C@H]2O1 | 15.6 (≈ 34.1 µM) | 62.5 (≈ 136 µM) | 62.5 (≈ 136 µM) | 22 | 24 | 250 (≈ 546 µM) | 125 (≈ 273 µM) | 13 | 17 | 62.5 (≈ 136 µM) | 125 (≈ 273 µM) | 62.5 (≈ 136 µM) | 17 | 15 | 16 | 19
2 | CC1(C)O[C@H]2O[C@@H]3COB(c4cccc(/C=N/c5ccc(Br)cc5)c4)O[C@@H]3[C@H]2O1 | 62.5 (≈ 136 µM) | 62.5 (≈ 136 µM) | 31.2 (≈ 68.2 µM) | 22 | 21 | 125 (≈ 273 µM) | 250 (≈ 546 µM) | 14 | 18 | 125 (≈ 273 µM) | 250 (≈ 546 µM) | 62.5 (≈ 136 µM) | 20 | 13 | 0 | 16
3 | CC1(C)O[C@H]2O[C@@H]3COB(c4cccc(N)c4)O[C@@H]3[C@H]2O1 | 500 (≈ 1720 µM) | 125 (≈ 429 µM) | 500 (≈ 1720 µM) | 11 | 13 | 250 (≈ 859 µM) | 500 (≈ 1720 µM) | 13 | 12 | 500 (≈ 1720 µM) | 500 (≈ 1720 µM) | 500 (≈ 1720 µM) | 17 | 12 | 0 | 13
4 | OB(O)c1ccc(/C=N/c2ccc(F)cc2)cc1 | 500 (≈ 2060 µM) | 250 (≈ 1030 µM) | 500 (≈ 2060 µM) | 9 | 0 | 500 (≈ 2060 µM) | 500 (≈ 2060 µM) | 0 | 0 | 500 (≈ 2060 µM) | 500 (≈ 2060 µM) | 500 (≈ 2060 µM) | 11 | 9 | 0 | 0
5 | CC1(C)O[C@H]2O[C@@H]3COB(c4cccc(/C=N/c5ccccc5)c4)O[C@@H]3[C@H]2O1 | 62.5 (≈ 165 µM) | 62.5 (≈ 165 µM) | 62.5 (≈ 165 µM) | 21 | 21 | 250 (≈ 659 µM) | 125 (≈ 330 µM) | 14 | 19 | 250 (≈ 659 µM) | 500 (≈ 1320 µM) | 125 (≈ 330 µM) | 21 | 13 | 0 | 11
6 | CC1(C)O[C@H]2O[C@@H]3COB(c4cccc(/C=N/c5ccc(Cl)cc5)c4)O[C@@H]3[C@H]2O1 | 250 (≈ 604 µM) | 125 (≈ 302 µM) | 31.2 (≈ 75.5 µM) | 25 | 13 | 125 (≈ 302 µM) | 250 (≈ 604 µM) | 17 | 22 | 250 (≈ 604 µM) | 500 (≈ 1210 µM) | 62.5 (≈ 151 µM) | 16 | 15 | 0 | 11
7 | Cc1ccc(/N=C/c2ccc(B3OC[C@H]4O[C@@H]5OC(C)(C)O[C@@H]5[C@H]4O3)cc2)cc1 | 500 (≈ 1270 µM) | 125 (≈ 318 µM) | 125 (≈ 318 µM) | 18 | 0 | 125 (≈ 318 µM) | 125 (≈ 318 µM) | 12 | 24 | 250 (≈ 636 µM) | 500 (≈ 1270 µM) | 62.5 (≈ 159 µM) | 17 | 17 | 0 | 12
